row,SMILES,melting point
1,"O=C(CNCc1ccccc1)Nc1n[nH]c2cc(Cl)ccc12 [Example 80, 2-[(phenylmethyl)amino]-N-(6-chloro-1H-indazol-3-yl)acetamide]",156 °C
2,"O=C(CNC1CCCCC1)Nc1n[nH]c2cc(Cl)ccc12 [Example 79, N-(6-chloro-1H-indazol-3-yl)-2-(cyclohexylamino)acetamide]",170 °C
3,CCCC(=O)Nc1n[nH]c2c(F)c(F)c(Br)cc12,220 °C
4,"CCCC(=O)Nc1n[nH]c2cc(Br)c(Br)cc12 [Example 70, N-[5,6-dibromo-1H-indazol-3-yl]butanamide]",250 °C
5,CN1CCN(CC(=O)Nc2n[nH]c3cc(Cl)ccc23)CC1,165 °C
6,"O=C(CN1CCCCC1)Nc1n[nH]c2cc(Cl)ccc12 [Example 76, N-(6-chloro-1H-indazol-3-yl)-1-piperidineacetamide]",153 °C
7,"O=C(Nc1n[nH]c2ccc(NS(=O)(=O)c3cccc(F)c3)cc12)c1ccccc1 [Example 38, N-[5-[[(3-fluorophenyl)sulphonyl]amino]-1H-indazol-3-yl]benzamide]",225 °C
8,"CCCC(=O)Nc1n[nH]c2ccc(C(F)(F)F)cc12 [Example 22, N-[5-(trifluoromethyl)-1H-indazol-3-yl]butanamide]",230 °C

# Continued, values first:
row,melting point,SMILES
1,104 °C,"CN(C)CCNCC(=O)Nc1n[nH]c2cc(Cl)ccc12 [Example 86, N-(6-chloro-1H-indazol-3-yl)-2-[[2-(dimethylamino)ethyl]amino]acetamide]"
2,180 °C,"CCCC(=O)Nc1n[nH]c2c(F)c(N3CCOCC3)c(N)cc12 [Example 113, N-(7-fluoro-5-amino-6-morpholino-1H-indazol-3-yl)butanamide]"
3,168 °C,"O=C(CN1CCCC1)Nc1n[nH]c2cc(Cl)ccc12 [Example 85, N-(6-chloro-1H-indazol-3-yl)-1-pyrrolidineacetamide]"
4,255 °C,"CCCC(=O)Nc1n[nH]c2c(F)c(F)c([N+](=O)[O-])cc12 [Example 106, N-(6,7-difluoro-5-nitro-1H-indazol-3-yl)butanamide]"
5,158 °C,"O=C(CN1CCCCC1)Nc1n[nH]c2c(F)c(F)ccc12 [Example 118, N-(6,7-difluoro-1H-indazol-3-yl)-1-piperidineacetamide]"
6,250 °C,"CCCC(=O)Nc1n[nH]c2c(F)c(N3CCOCC3)c([N+](=O)[O-])cc12 [Example 112, N-(7-fluoro-5-nitro-6-morpholino-1H-indazol-3-yl)butanamide]"

# From US6949579B2, “Aminoindazole derivatives and intermediates, preparation thereof, and pharmaceutical compositions thereof” (Aventis Pharma S.A., priority 2002, dated 2005)
